The record followed here is PubChem BioAssay AID2467 (Broad Institute, 2010).

As a reminder, the EC50 is the midpoint of the concentration-response curve.

For the assay, the system named is C. albicans growth with fluconazole, fluorescence. The assay can be described thus: fluconazole-exposed Candida albicans growth modulators – fluorescence, retest, confirmation (AID 2467).

Each structure is given as a SMILES string. Values joined by “and” are separate entries in the source; they are usually repeats but may differ in a detail not shown here. Identical values can stand only once. Inconclusive results are not listed. Active and inactive are the calls of the source. The rule behind the calls is not given here.

Consider `c1cnc2c(c1)ccc1cccnc12`, for which the EC50 is > 3.8 µM (inactive).

Regarding `NC(=NCCCCCCN=C(N)/N=C(\N)Nc1ccc(Cl)cc1)/N=C(\N)Nc1ccc(Cl)cc1`, the EC50 was 0.635 µM and 0.308 µM and 0.649 µM.
